Experimental data published in patent US12139492B2 (Endotarget Inc., priority 2021, dated 2024).
Like-named read-outs stand apart in the source and are kept apart here.

Tests used:
Mino cells = test: Antiproliferative effect, MTS cell viability assay, Mino cells; format: cell-based; conditions: Homo sapiens, Mino mantle cell lymphoma cells, read-out: IC50 (anti-proliferation) Mino cells
Procedure, shortened: (§1)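 MTS read-out, A490 of formazan from metabolically active cells; compound 0–10 μM (0, 0.001, 0.01, 0.1, 1, 10 μM), 72 h exposure.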

JeKo-1 cells = test: Antiproliferative effect, MTS cell viability assay, JeKo-1 cells; format: cell-based; conditions: Homo sapiens; JeKo-1 mantle cell lymphoma cells; read-out: IC50 (anti-proliferation) JeKO-1 cells
Procedure, shortened: as §1

BTK = BTK (Homo sapiens, UniProt Q06187); test: Degradation of BTK protein in Namalwa cells (Western blot; DC50, Dmax); conditions: for DC50: cell line not given
Chain of BTK (Q06187 whole entry): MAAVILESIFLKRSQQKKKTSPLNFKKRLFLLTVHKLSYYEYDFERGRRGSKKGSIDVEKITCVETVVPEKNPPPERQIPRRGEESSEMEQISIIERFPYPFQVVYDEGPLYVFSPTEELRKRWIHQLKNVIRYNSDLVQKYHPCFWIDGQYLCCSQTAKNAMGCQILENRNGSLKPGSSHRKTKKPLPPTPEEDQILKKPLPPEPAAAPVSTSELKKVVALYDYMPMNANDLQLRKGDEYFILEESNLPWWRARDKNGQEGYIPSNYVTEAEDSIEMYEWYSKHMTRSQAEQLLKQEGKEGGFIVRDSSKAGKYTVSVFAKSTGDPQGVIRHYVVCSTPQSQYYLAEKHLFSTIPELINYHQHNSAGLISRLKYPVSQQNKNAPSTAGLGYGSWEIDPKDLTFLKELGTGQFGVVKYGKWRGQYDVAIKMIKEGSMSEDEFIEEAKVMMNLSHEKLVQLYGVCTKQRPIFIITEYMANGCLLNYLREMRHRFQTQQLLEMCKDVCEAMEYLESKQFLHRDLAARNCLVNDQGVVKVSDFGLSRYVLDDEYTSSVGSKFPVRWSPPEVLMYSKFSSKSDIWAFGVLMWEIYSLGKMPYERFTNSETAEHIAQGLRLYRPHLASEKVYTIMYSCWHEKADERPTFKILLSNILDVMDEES

[1] = read-out: DC50 (BTK degradation), concentration giving 50% reduction of BTK expression level
[2] = read-out: Dmax (BTK degradation)

## Nc1ncnc2c1c(-c1ccc(Oc3ccccc3)cc1)nn2C1CCN(C[C@@H]2CCN(C[C@@H]3CCN(c4ccc5c(c4)C(=O)N(C4CCC(=O)NC4=O)C5=O)C3)C2)CC1 (stereo partly drawn) [Compound 447c, 5-((S)-3-(((S)-3-((4-(4-amino-3-(4-phenoxyphenyl)-1H-pyrazolo[3,4-d]pyrimidin-1-yl)piperidin-1-yl)methyl)pyrrolidin-1-yl)methyl)pyrrolidin-1-yl)-2-(2,6-dioxopiperidin-3-yl)isoindoline-1,3-dione]
Mino cells; MINO
  IC50: 1 to 10 µM
JeKo-1 cells
  IC50: 1 to 10 µM
BTK; [1]
  DC50: < 0.01 µM
BTK; [2]
  Dmax: > 90%

## Nc1ncnc2c1c(-c1ccc(Oc3ccccc3)cc1)nn2C1CCN(CCCN2CCC(CN3CCC(c4ccc5c(c4)oc(=O)n5C4CCC(=O)NC4=O)CC3)C2)CC1 (stereo not drawn) [Compound 543, 3-(6-(1-((1-(3-(4-(4-amino-3-(4-phenoxyphenyl)-1H-pyrazolo[3,4-d]pyrimidin-1-yl)piperidin-1-yl)propyl)pyrrolidin-3-yl)methyl)piperidin-4-yl)-2-oxobenzo[d]oxazol-3(2H)-yl)piperidine-2,6-dione]
Mino cells; MINO
  IC50: 1 to 10 µM
JeKo-1 cells
  IC50: 1 to 10 µM
BTK; [1]
  DC50: 0.01 to 0.05 µM
BTK; [2]
  Dmax: > 75%

## NC(=O)c1c(-c2ccc(Oc3ccccc3)cc2)nn2c1NCC[C@H]2C1CCN(C2CCN(CCN3CCC(c4ccc5c(c4)C(=O)N(C4CCC(=O)NC4=O)C5=O)CC3)CC2)CC1 (stereo partly drawn) [Compound 327, (7S)-7-(1′-(2-(4-(2-(2,6-dioxopiperidin-3-yl)-1,3-dioxoisoindolin-5-yl)piperidin-1-yl)ethyl)-[1,4′-bipiperidin]-4-yl)-2-(4-phenoxyphenyl)-4,5,6,7-tetrahydropyrazolo[1,5-a]pyrimidine-3-carboxamide]
Mino cells; MINO
  IC50: 1 to 10 µM
JeKo-1 cells
  IC50: > 10 µM
BTK
  Dmax: > 75%
BTK; BTK degradation
  DC50: 0.01 to 0.05 µM

## NC(=O)c1c(-c2ccc(Oc3ccccc3)cc2)nn2c1NCC[C@H]2C1CCN(C2CCN(C(=O)N3CCC(CN4CCN(c5ccc6c(c5)CN(C5CCC(=O)NC5=O)C6=O)CC4)CC3)CC2)CC1 (stereo partly drawn) [Compound 390, (7S)-7-(1′-(4-((4-(2-(2,6-dioxopiperidin-3-yl)-1-oxoisoindolin-5-yl)piperazin-1-yl)methyl)piperidine-1-carbonyl)-[1,4′-bipiperidin]-4-yl)-2-(4-phenoxyphenyl)-4,5,6,7-tetrahydropyrazolo[1,5-a]pyrimidine-3-carboxamide]
Mino cells; MINO
  IC50: 1 to 10 µM
JeKo-1 cells
  IC50: > 10 µM
BTK
  Dmax: > 90%
BTK; BTK degradation
  DC50: 0.01 to 0.05 µM

## Nc1ncnc2c1c(-c1ccc(Oc3ccccc3)cc1)nn2C1CCN(CCN2CCC(CN3CCC(c4ccc(N5CCC(=O)NC5=O)cc4)CC3)CC2)CC1 [Compound 553, 1-(4-(1-((1-(2-(4-(4-amino-3-(4-phenoxyphenyl)-1H-pyrazolo[3,4-d]pyrimidin-1-yl)piperidin-1-yl)ethyl)piperidin-4-yl)methyl)piperidin-4-yl)phenyl)dihydropyrimidine-2,4(1H,3H)-dione]
Mino cells
  IC50: < 1 µM
JeKo-1 cells
  IC50: < 1 µM
BTK; [1]
  DC50: < 0.01 µM
BTK; [2]
  Dmax: > 90%

## Nc1ncnc2c1c(-c1ccc(Oc3ccccc3)cc1)nn2C1CCN(CC2CCN(CCCC3CCN(c4ccc5c(c4)C(=O)N(C4CCC(=O)NC4=O)C5=O)CC3)CC2)CC1 (stereo not drawn) [Compound 211, 5-(4-(3-(4-((4-(4-amino-3-(4-phenoxyphenyl)-1H-pyrazolo[3,4-d]pyrimidin-1-yl)piperidin-1-yl)methyl)piperidin-1-yl)propyl)piperidin-1-yl)-2-(2,6-dioxopiperidin-3-yl)isoindoline-1,3-dione]
Mino cells; MINO
  IC50: 1 to 10 µM
JeKo-1 cells
  IC50: > 10 µM
BTK
  Dmax: > 75%
BTK; BTK degradation
  DC50: 0.01 to 0.05 µM

## Nc1ncnc2c1c(-c1ccc(Oc3ccccc3)cc1)nn2C1CCN(C2CCN(CCN3CCC(c4ccc(N5CCC(=O)NC5=O)cc4)CC3)C2)CC1 (stereo not drawn) [Compound 574, 1-(4-(1-(2-(3-(4-(4-amino-3-(4-phenoxyphenyl)-1H-pyrazolo[3,4-d]pyrimidin-1-yl)piperidin-1-yl)pyrrolidin-1-yl)ethyl)piperidin-4-yl)phenyl)dihydropyrimidine-2,4(1H,3H)-dione]
Mino cells; MINO
  IC50: 1 to 10 µM
JeKo-1 cells
  IC50: 1 to 10 µM
BTK; [1]
  DC50: 0.01 to 0.05 µM
BTK; [2]
  Dmax: > 90%

## Nc1ncnc2c1c(-c1ccc(Oc3ccccc3)cc1)nn2C1CCC(C(=O)N2CC(N3CCN(c4ccc5c(c4)CN(C4CCC(=O)NC4=O)C5=O)CC3)C2)CC1 (stereo not drawn) [Compound 512, 3-(5-(4-(1-(4-(4-amino-3-(4-phenoxyphenyl)-1H-pyrazolo[3,4-d]pyrimidin-1-yl)cyclohexane-1-carbonyl)azetidin-3-yl)piperazin-1-yl)-1-oxoisoindolin-2-yl)piperidine-2,6-dione]
Mino cells; MINO
  IC50: < 1 µM
JeKo-1 cells
  IC50: < 1 µM
BTK; [1]
  DC50: < 0.01 µM
BTK; [2]
  Dmax: > 90%

## Nc1ncnc2c1c(-c1ccc(Oc3ccccc3)cc1)nn2C1CCN(C2CCN(C(=O)N3CCN(CCN4CCC(c5ccc6c(c5)C(=O)N(C5CCC(=O)NC5=O)C6=O)CC4)CC3)CC2)CC1 (stereo not drawn) [Compound 249, 5-(1-(2-(4-(4-(4-amino-3-(4-phenoxyphenyl)-1H-pyrazol[3,4-d]pyrimidin-1-yl)-[1,4′-bipiperidine]-1′-carbonyl)piperazin-1-yl)ethyl)piperidin-4-yl)-2-(2,6-dioxopiperidin-3-yl)isoindoline-1,3-dione]
Mino cells; MINO
  IC50: < 1 µM
JeKo-1 cells
  IC50: 1 to 10 µM
BTK
  Dmax: > 75%
BTK; BTK degradation
  DC50: 0.01 to 0.05 µM

## NC(=O)c1c(-c2ccc(Oc3ccccc3)cc2)nn2c1NCC[C@H]2C1CCN(C2CCN(C(=O)N3CCC(C4CCN(c5ccc6c(c5)CN(C5CCC(=O)NC5=O)C6=O)CC4)CC3)CC2)CC1 (stereo partly drawn) [Compound 384, (7S)-7-(1′-(1′-(2-(2,6-dioxopiperidin-3-yl)-1-oxoisoindolin-5-yl)-[4,4′-bipiperidine]-1-carbonyl)-[1,4′-bipiperidin]-4-yl)-2-(4-phenoxyphenyl)-4,5,6,7-tetrahydropyrazolo[1,5-a]pyrimidine-3-carboxamide]
Mino cells; MINO
  IC50: < 1 µM
JeKo-1 cells
  IC50: 1 to 10 µM
BTK
  Dmax: > 90%
BTK; BTK degradation
  DC50: < 0.01 µM

## Nc1ncnc2c1c(-c1ccc(Oc3ccccc3)cc1)nn2C1CCN(C2CCN(CCCN3CCC(c4ccc5c(c4)CN(C4CCC(=O)NC4=O)C5=O)CC3)CC2)CC1 (stereo not drawn) [Compound 224, 3-(5-(1-(3-(4-(4-amino-3-(4-phenoxyphenyl)-1H-pyrazolo[3,4-d]pyrimidin-1-yl)-[1,4′-bipiperidin]-1′-yl)propyl)piperidin-4-yl)-1-oxoisoindolin-2-yl)piperidine-2,6-dione]
Mino cells; MINO
  IC50: 1 to 10 µM
JeKo-1 cells
  IC50: 1 to 10 µM
BTK
  Dmax: > 75%
BTK; BTK degradation
  DC50: 0.01 to 0.05 µM

## NC(=O)c1c(-c2ccc(Oc3ccccc3)cc2)nn2c1NCCC2C1CCN(C2CCN(C(=O)N3CCC(CC4CCN(c5ccc6c(c5)CN(C5CCC(=O)NC5=O)C6=O)CC4)CC3)CC2)CC1 (stereo not drawn) [Compound 354, 7-(1′-(4-((1-(2-(2,6-dioxopiperidin-3-yl)-1-oxoisoindolin-5-yl)piperidin-4-yl)methyl)piperidine-1-carbonyl)-[1,4′-bipiperidin]-4-yl)-2-(4-phenoxyphenyl)-4,5,6,7-tetrahydropyrazolo[1,5-a]pyrimidine-3-carboxamide]
Mino cells; MINO
  IC50: 1 to 10 µM
JeKo-1 cells
  IC50: 1 to 10 µM
BTK
  Dmax: > 90%
BTK; BTK degradation
  DC50: 0.01 to 0.05 µM
